{
  "source": "patent US20220280548A1",
  "about": "“COMBINATION THERAPY FOR SPINAL MUSCULAR ATROPHY” (Biogen MA Inc., priority 2019, published 2022)",
  "test_system": "neonatal (P0-P1) SMA mice having a human SMN2 transgene",
  "experiment": "Body weight and righting reflex in neonatal SMA mice given nusinersen and/or AAV-SMN1 (Example 9)",
  "type": "in vivo",
  "details": "monotherapy, single dose",
  "experimental": "Nusinersen and AAV-SMN1 were administered to neonatal (P0-P1) SMA mice having a human SMN2 transgene. A low or high dose of nusinersen (1 μg and 3 μg respectively) was administered to the mice along with a low or high dose of AAV-SMN1 (1×10^10 GC or 3×10^10 GC respectively) at birth (P0-P1). The mice body weight and righting reflex were measured and compared to the body weight and righting reflex of control mice of the same genotype having received either nusinersen or AAV-SMN1 alone.\n[…]",
  "note": "Entries after “also recorded” stand apart in the source; their conditions may differ.",
  "data": [
    {"substance": "nusinersen (antisense UCACUUUCAUAAUGCUGG; 2'-O-MOE, phosphorothioate, chemistry not fully specified) [uniformly modified 2′-O-(2-methoxyethyl) phosphorothioate antisense oligonucleotide consisting of 18 nucleotide residues, targets intron 7 of SMN2 pre-mRNA]", "values": [
      {"measurement": "rescue of motor function (righting reflex)", "setting": "PND 16", "value": "full rescue"},
      {"measurement": "rescue of motor function (righting reflex)", "setting": "postnatal day (PND) 8", "value": "partially rescues; also recorded: partial rescue"},
      {"measurement": "body weight", "setting": "relative to WT control", "value": "lags behind the WT control"}
    ]}
  ]
}
